# Reference: patent publication EP1724268A1, “COMPOUND HAVING TGF-BETA INHIBITORY ACTIVITY AND PHARMACEUTICAL COMPOSITION CONTAINING SAME” (KIRIN BEER KABUSHIKI KAISHA, priority 2004, dated 2005)
# Legend:
# BMP4 signal = experiment: BMP signal inhibitory activity, p(GCCG)12-Luc reporter in HepG2 cells (Test Example 7); assay type: cell-based, human; details: for Selectivity for BMP (times): Inhibitory activity against BMP4 signal (IC50)/Inhibitory activity against TGFβ signal (IC50), HepG2 reporter cells, BMP4 20 ng/ml, TGFβ-1 2 ng/ml, 4 hr; for inhibitory activity against BMP4 signals: as compared with Example 274 described in WO 03/00660
# Text: The inhibitory activity of the compounds according to the present invention against BMP signals was studied using a cell line through which TGFb and BMP signals can be simultaneously observed. Specifically, the cell lines capable of detecting the two signal was generated by transfecting reporter plasmids for detection of TGFb and BMP signals into a human hepatocarcinoma cell line HepG2(available from ATCC) and was used as evaluation cells. For detection of TGF-beta signal, the plasmid having four tandem binding sequences of Smad2/3, TGF-beta signal transducers, to the upstream of a luciferases gene were used as a reporter plasmid (p(SBE)4-Luc/hygro). For detection of BMP signal, the plasmid having twelve tandem binding sequences of Smadl/5/8, BMP signal transducers, to the upstream of a luciferases gene were used as a reporter plasmid (p(GCCG)12-Luc/neo), according to the method described in Mol Biol Cell. 2000 11(2): 555-65. The test compound and TGFβ-1 (2 ng/ml) or BMP4 (20 ng/ml) were added to the cells, and the mixture was cultured for 4 hr. The compounds according to the present invention synthesized in the working example were used as the test compound. […] After the culture, the luciferase activity of the cells was measured by chemiluminescence (Steady Glo (trademark) luciferase assay system, available from Promega). Likewise, the luciferase activity was measured as control for the culture of cells with only TGFβ or BMP4 added thereto and the culture of cells with the addition of none of TGFβ, BMP4 and the test compound. The inhibitory activity IC50 of the compounds against TGFβ and BMP4 was calculated based on the results of measurement, and the kinase selectivity for BMP4 was determined by the following method. Kinase selectivity for BMP4 (times) = Inhibitory activity against BMP4 signal (IC50)/Inhibitory activity against TGFβ signal (IC50)
# A549 cells = experiment: Cell growth inhibitory activity using A549 cells (Test Example 6); assay type: cell-based, Human; details: for inhibition at 30 µM: Homo sapiens, A549, compound 30 µM, 5% serum, 40 hr, counting kit-8, read-out: Cell growth inhibition rate (%); for inhibitory activity against cell growth or BMP4 signals: as compared with Example 261 or Example 269 described in WO 03/00660; for inhibitory activity against cell growth of A549 cells: as compared with Example 274 described in WO 03/00660
# Experimental: Human lung cancer epithelial cells (A549) (available from ATCC) were suspended to a concentration of 3 × 10^4/ml in a DMEM/F12 medium containing 10%FCS, and the suspension was inoculated in 100 µl portions in wells of a 96-well plate. On the following day, a stock solution of the test compound which had been adjusted to 10 mM with DMSO was adjusted with a serum-free DMEM/F12 medium to a dose (60 µM) which was twice the evaluation concentration. After removing the medium inoculated in the 96 wells on the previous day, the solution was added in 50 µl portions to the plate. Next, a DMEM/F12 medium containing 10% serum was added in 50 µl portions to the wells, followed by culturing at 37°C for 40 hr. The final concentration of the serum and the concentration of the evaluation compound were 5% and 30 µM, respectively. The compounds according to the present invention synthesized in the working example were used as the test compound. […]
# After 40 hr, the culture was removed, and 100 µl of a solution prepared by diluting counting kit-8 (purchased from Dojindo) with a serum-free F12 medium by 10 times was added, followed by culturing at 37°C for 20 to 30 min. After the confirmation of suitable color development, the absorbance at 450 nm was measured with ARVO (purchased from Wallach Bethold Japan). The cell growth inhibition in the test compound added wells were determined by presuming the absorbance value in the test compound-free wells to be 0% and the absorbance value in the cell-free wells to be 100%.
# TGFβ signal = TGFβ signal inhibitory activity, (SBE)4-Luc reporter in A549 cells (Test Examples 1A and 1B); assay type: cell-based, human; details: Homo sapiens, A549, TGFβ-1 2 ng/ml, 4 hr, Table 1A, read-out: TGFβ inhibition rate, %; for inhibition at 3 µM: test compound 3 µM; for inhibition at 10 µM: test compound 10 µM
# How it was run: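 Stable A549 line carrying (SBE)4-Luc Smad3-binding reporter treated with compound plus TGFβ-1 (2 ng/ml) for 4 hr; luciferase read by chemiluminescence. Percent inhibition relative to TGFβ-only and untreated cells, tested at 3 µM and 10 µM, some also at 1 µM.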
SMILES,Selectivity for BMP (times) (BMP4 signal),inhibition at 30 µM (A549 cells) [%],inhibitory activity against cell growth or BMP4 signals (A549 cells),inhibition at 3 µM (TGFβ signal) [%],inhibition at 10 µM (TGFβ signal) [%],inhibitory activity against BMP4 signals (BMP4 signal),inhibitory activity against cell growth of A549 cells (A549 cells)
"CCc1ccc(Oc2ccnc3ccc(OCCOC(C)=O)cc23)c(-c2ccccn2)n1 [Compound 182, 2-[4-(6-Ethyl-[2,2']bipyridinyl-3-yloxy)-quinolin-6-yloxy]-ethyl acetate]",195,-8,reduced inhibitory activity,99,100,,
"CCc1ccc(Oc2ccnc3ccc(OCCO)cc23)c(-c2ccccn2)n1 [Compound 181, 2-[4-(6-Ethyl-[2,2']bipyridinyl-3-yloxy)-quinolin-6-yloxy]-ethanol]",308,-7,reduced inhibitory activity,100,100,,
"CCc1ccc(Oc2ccnc3cc(C(N)=O)c(O)cc23)c(-c2ncccn2)n1 [Compound 194, 4-(6-Ethyl-2-pyrimidin-2-yl-pyridin-3-yloxy)-6-hydroxy-quinoline-7-carboxylic acid amide]",51,-15,,60,,reduced inhibitory activity,reduced inhibitory activity
"CCc1ccc(Oc2ccnc3ccc(OS(C)(=O)=O)cc23)c(-c2ccccn2)n1 [Compound 187, 4-(6-Ethyl-[2,2']bipyridinyl-3-yloxy)-quinolin-6-yl methanesulfonate]",72,0,reduced inhibitory activity,100,100,,
"CCc1ccc(Oc2ccnc3ccc(OCCN)cc23)c(-c2ncccn2)n1 [Compound 204, 2-[4-(6-Ethyl-2-pyrimidin-2-yl-pyridin-3-yloxy)-quinolin-6-yloxy]-ethylamine]",,-9,,84,,reduced inhibitory activity,reduced inhibitory activity
"CCc1ccc(Oc2ccnc3ccc(OCCO)cc23)c(-c2ncccn2)n1 [Compound 192, 2-[4-(6-Ethyl-2-pyrimidin-2-yl-pyridin-3-yloxy)-quinolin-6-yloxy]-ethanol]",> 176,3,,97,100,reduced inhibitory activity,reduced inhibitory activity
"Cc1ccc(Oc2ccnc3ccc(O)cc23)c(-c2ncccn2)n1 [Compound 201, 4-(6-Methyl-2-pyrimidin-2-yl-pyridin-3-yloxy)-quinolin-6-ol]",,2,,82,,reduced inhibitory activity,reduced inhibitory activity
"CCc1ccc(Oc2ccnc3cc(F)c(OCCO)cc23)c(-c2ncccn2)n1 [Compound 225, 2-[4-(6-Ethyl-2-pyrimidin-2-yl-pyridin-3-yloxy)-7-fluoro-quinolin-6-yloxy]-ethanol]",,8,,89,99,reduced inhibitory activity,reduced inhibitory activity
"Cc1cc(Oc2ccnc3ccc(OCCO)cc23)c(-c2ncccn2)nc1C [Compound 200, 2-[4-(5,6-Dimethyl-2-pyrimidin-2-yl-pyridin-3-yloxy)-quinolin-6-yloxy]-ethanol]",75,0,,85,,reduced inhibitory activity,reduced inhibitory activity
